In patent US12624012B2, “14-chloro-β-elemene nitric oxide donor derivative and preparation method and use thereof” (HANGZHOU NORMAL UNIVERSITY, priority 2021, dated 2026):
Like-named read-outs stand apart in the source and are kept apart here.

How the values were obtained:
[1] = In vitro NO release test (incubation with L-cysteine, OD at 550 nm); conditions: 100 μM solution with cysteine solution, 37° C.
Procedure: • (1) Sodium nitrite solutions with different concentrations were prepared. A calibration curve was drawn. • (2) The sample was treated. A 100 μM solution was prepared. 2.5 mL of the prepared compound solution and 2.5 mL of the cysteine solution were taken and incubated at 37° C. for 120 min, and the resulting mixture was sampled at different time points. • (3) A blank hole and a standard hole were set. 160 μL of the sample was collected and mixed evenly with 0.08 mL of a developer and stood at 37° C. for 15 min. At λ=550 nm, the OD value of absorbance was measured by the enzyme marker. The NO release levels were obtained by substituting the value into the standard curve.

U87MG = test: In vitro anti-tumor activity evaluation test (CCK-8), U87MG; type: cell-based, human; conditions: U87MG, 72 h; for inhibition at 1 µM: read-out: Inhibitory rates against tumor cell lines; for IC50: read-out: IC50 against different tumor cell lines
Procedure: (§1) • (1) Cells were digested and counted. Cell suspensions (H520, SW620 5.0×10^4 cells/mL, and U87MG 3.5×10^4 cells/mL) were prepared. 100 μL of cell suspension was added to each well of a 96-well cell culture plate. • (2) The 96-well cell culture plate was incubated in a 37° C., 5%, CO2 incubator for 24 h. • (3) A drug was diluted with a culture medium to a desired working solution concentration. 100 μL of the corresponding drug-containing culture medium was added to each well. At the same time, a negative control group and a positive control group were set up. • (4) The 96-well cell culture plate was incubated in a 37° C., 5%, CO2 incubator for 72 h. • (5) The 96-well plate was stained with CCK-8, and at λ=450 nm, the OD value was determined. • 1) 10 μL of CCK-8 was added to each well. The culture plate continued to be incubated in the incubator for 2-3 h. • 2) The culture plate was rocked for 10 min to gently mix and remove air bubbles from the 96-well plate. • 3) At λ=450 nm, the OD value of each well was read by the enzyme marker, and the inhibitory rates were calculated. • (6) According to the following equation (1), the growth inhibitory rate of the tumor cells was obtained. The obtained results were substituted into an IC 50 calculation software SPSS17.0 to find out the IC50 value.

SW620 = test: In vitro anti-tumor activity evaluation test (CCK-8), SW620; type: cell-based, human; conditions: SW620, 72 h; for inhibition at 1 µM: read-out: Inhibitory rates against tumor cell lines; for IC50: read-out: IC50 against different tumor cell lines
Procedure: as §1

NCI-H520 = test: In vitro anti-tumor activity evaluation test (CCK-8), NCI-H520; type: cell-based, human; conditions: NCI-H520, 72 h; for inhibition at 1 µM: read-out: Inhibitory rates against tumor cell lines; for IC50: read-out: IC50 against different tumor cell lines
Procedure: as §1

[2] = system: human brain glioma U87MG-LUC; test: In vivo anti-tumor activity against malignant brain glioma (in situ U87MG-LUC model); set-up: species or system BABLc/nude mice; conditions: for growth of malignant brain gliomas in mice: after administration for 3 weeks; for brain weight / living and physical conditions of mice / tumor volume / bioluminescence signal intensity of gliomas: versus model group; for bioluminescence signal intensity of gliomas: which increases rapidly
From the text: • Source, germ line, strain: BABLc/nude mice, provided by Shanghai Slaughter Laboratory Animal Co., Ltd., China. • Experimental animal production license: SOCK (Shanghai) 2017-0005 • Certificate of Conformity No.: 20170005040021 • Experimental animal use license: SYXK (Su) 2017-0040 • Age: 4-5 weeks • Sex: female • Number of animals: 5 animals per group, 15 animals in total Experimental Instrument: • Small animal in vivo 3D imaging system Spectrum, PerkinElmer
The cultured human brain glioma U87MG-LUC cell suspension with a concentration of 5×10^7 cells/mL was collected and each animal was inoculated in situ with 20 μL of the cell suspension. 10% chloral hydrate was injected intraperitoneally to anesthetize the mice, and the heads of the mice were fixed with a stereotaxic instrument. The skin of the head was disinfected with an alcohol swab. The skin of the head was cut along the direction of midline of the brain at its slightly right. The right hemisphere was taken as the reference point for fontanelle, 2 mm to the right of the midline, and 1 mm in front as the entry point, and the skull was ground open with a micro-abrasive drill. The cells were fully resuspended with a gun head, a syringe was used to extract the cell suspension. A vertical needle fixed by a stereotaxic instrument was used to feed 3.5 mm and quit 0.5 mm, then stood for 1 min and slowly injected the cells. After injection, the needle was stood for 1 min and slowly withdrawn. Alcohol swabs were used to disinfect the skin, and mice were put back into the feeding cages to wake up naturally after suturing the skin with stitches.
After 14 days of cell inoculation, the animals were randomly grouped, with 5 animals in each group. At the same time, each group of nude mice began to administer drugs. The drug administration protocol is shown in the group and drug administration protocol. At the end of the experiment, the nude mice were executed immediately. The brain tissues were surgically stripped, photographed, and weighed.
Two animals in each group were selected and injected intraperitoneally with Luc bioluminescence signal substrate, 100 μL/each animal, before administration, 1 week, 2 weeks, and 3 weeks after drug administration, respectively. 10 min later, the mice were anesthetized with isoflurane and placed on black box loading platform of an instrument for in vivo imaging detection to observe the bioluminescence signal of in situ tumors in mice's brains.

Row | Compound | IC50 (U87MG; Homo sapiens, U-87 MG) [µM] | IC50 (SW620; Homo sapiens, SW-620) [µM] | IC50 (NCI-H520; Homo sapiens) [µM] | living and physical conditions of mice [2] | NO-release concentrations ([1]; 5 min) [µM] | NO-release concentrations ([1]; 10 min) [µM] | NO-release concentrations ([1]; 20 min) [µM] | NO-release concentrations ([1]; 30 min) [µM] | NO-release concentrations ([1]; 60 min) [µM] | NO-release concentrations ([1]; 90 min) [µM] | NO-release concentrations ([1]; 120 min) [µM] | inhibition at 1 µM (U87MG; Homo sapiens, U-87 MG, 1 μM) [%] | inhibition at 1 µM (SW620; Homo sapiens, SW-620, 1 μM) [%] | inhibition at 1 µM (NCI-H520; Homo sapiens, 1 μM) [%] | growth of malignant brain gliomas in mice [2] | brain weight [2] | tumor volume [2] | bioluminescence signal intensity of gliomas [2] | other results
1 | C=C[C@]1(C)CC[C@@H](C(=C)CN2CCN(CCOC(=O)CCC(=O)OCCOc3no[n+]([O-])c3S(=O)(=O)c3ccccc3)CC2)C[C@H]1C(=C)CCl [Example 21, 4-(2-((4-(2-(4-(2-((1R,3R,4S)-3-(3-chloroprop-1-en-2-yl)-4-methyl-4-vinylcyclohexyl)allyl)piperazin-1-yl)ethyoxyl)-4-oxobutanoyl)oxy)ethyoxyl)-3-(phenylsulfonyl)-1,2,5-oxadiazole 2-oxide] | 0.926 ± 0.052 |  |  |  | 0.08 | 0.41 | 0.99 | 1.64 | 2.98 | 6.43 | 10.20 | 52.6 ± 1 | 43.6 ± 2.5 | 47.3 ± 2.6 |  |  |  |  | 
2 | C=C[C@]1(C)CC[C@@H](C(=C)C)C[C@H]1C(=C)C [β-elemene] |  |  |  | much better than the model group |  |  |  |  |  |  |  |  |  |  | effectively inhibited | significantly lighter than that of the model group | significantly smaller than that in the model group | declines dramatically | Inhibitory rates against tumor cell lines (U87MG; 1 μM): 4.3 ± 2.2%; IC50 (U87MG): > 100 µM; Inhibitory rates against tumor cell lines (SW620; 1 μM): 2.5 ± 4.1%; IC50 (SW620): > 100 µM; Inhibitory rates against tumor cell lines (NCI-H520; 1 μM): 3.2 ± 0.7%; IC50 (NCI-H520): > 100 µM; inhibitory activity (bioluminescence signal of glioma) ([2]; first week of administration): > 20%
3 | C=C[C@]1(C)CC[C@@H](C(=C)CN2CCCC(COC(=O)CCC(=O)OCC#CCOc3no[n+]([O-])c3S(=O)(=O)c3ccccc3)C2)C[C@H]1C(=C)CCl (stereo partly drawn) [Example 19, 4-((4-((4-((1-(2-((1R,3R,4S)-3-(3-chloroprop-1-en-2-yl)-4-methyl-4-vinylcyclohexyl)allyl)piperidin-3-yl)methoxyl)-4-oxobutanoyl)oxy)but-2-yn-1-yl)oxy)-3-(phenylsulfonyl)-1,2,5-oxadiazole 2-oxide] | 0.985 ± 0.012 |  |  |  | 13.76 | 15.87 | 19.21 | 22.88 | 34.60 | 48.73 | 56.52 | 41.9 ± 1.1 | 40.6 ± 2.8 | 46.1 ± 2.7 |  |  |  |  | 

The remaining molecules from weak to strong by IC50 (U87MG; Homo sapiens, U-87 MG), led by results:

Row | IC50 (U87MG; Homo sapiens, U-87 MG) [µM] | IC50 (SW620; Homo sapiens, SW-620) [µM] | IC50 (NCI-H520; Homo sapiens) [µM] | living and physical conditions of mice [2] | Compound | NO-release concentrations ([1]; 5 min) [µM] | NO-release concentrations ([1]; 10 min) [µM] | NO-release concentrations ([1]; 20 min) [µM] | NO-release concentrations ([1]; 30 min) [µM] | NO-release concentrations ([1]; 60 min) [µM] | NO-release concentrations ([1]; 90 min) [µM] | NO-release concentrations ([1]; 120 min) [µM] | inhibition at 1 µM (U87MG; Homo sapiens, U-87 MG, 1 μM) [%] | inhibition at 1 µM (SW620; Homo sapiens, SW-620, 1 μM) [%] | inhibition at 1 µM (NCI-H520; Homo sapiens, 1 μM) [%] | growth of malignant brain gliomas in mice [2] | brain weight [2] | tumor volume [2] | bioluminescence signal intensity of gliomas [2] | other results
4 | 0.369 ± 0.013 | 0.858 ± 0.033 | 0.719 ± 0.017 | much better than the model group | C=C[C@]1(C)CC[C@@H](C(=C)CN(C)CCOC(=O)CCCC(=O)OCC#CCOc2no[n+]([O-])c2S(=O)(=O)c2ccccc2)C[C@H]1C(=C)CCl [Example 4] | 12.53 | 14.80 | 19.55 | 23.6 | 42.31 | 66.97 | 93.18 | 55.5 ± 1.9 | 47.5 ± 3.7 | 48.7 ± 2 | effectively inhibited | significantly lighter than that of the model group | significantly smaller than that in the model group | declines dramatically | blocking of tumor growth ([2]; last week of administration (3 weeks)): > 90%
5 | 0.343 ± 0.029 | 1.02 ± 0.09 | 0.848 ± 0.053 |  | C=C[C@]1(C)CC[C@@H](C(=C)CN2CC[C@H](OC(=O)CCCC(=O)OCCOc3no[n+]([O-])c3S(=O)(=O)c3ccccc3)C2)C[C@H]1C(=C)CCl [Example 10] | 8.39 | 9.44 | 10.65 | 12.22 | 18.15 | 26.49 | 34.97 | 53.1 ± 1.4 | 45.9 ± 3.9 | 46.7 ± 2 |  |  |  |  | 
